From ChEMBL document CHEMBL5500381, “Antiviral drug discovery: Pyrimidine entry inhibitors for Zika and dengue viruses” (Eur J Med Chem, 2024)
pEC50: −log10 of the molar value. Converted amounts (≈) assume the structure as drawn. The source made the active and inactive calls. The rule behind the calls is not given here.

Legend:
[1] = Cytotoxicity against African green monkey Vero cells assessed as cell viability measured after 72 hrs by MTT assay; format: toxicity, cell-based; conditions: chlorocebus sabaeus
[2] = Selectivity index, ratio of CC50 for cytotoxicity against African green monkey Vero cells to EC50 for anti-viral activity against DENV-2 Thailand/16681/1984 strain; format: toxicity, cell-based; conditions: read-out: Selectivity Index
dengue virus type 2 [3] = assay: Anti-viral activity against DENV-2 Thailand/16681/1984 strain infected in african green monkey Vero cells at 0.1 MOI assessed as reduction in virus yield measured after 48 hrs by virus reduction assay; format: functional, organism-based; conditions: Thailand/16681/1984, Vero
[4] = Selectivity index, ratio of CC50 for cytotoxicity against African green monkey Vero cells to EC50 for anti-viral activity against ZIKV Argentine strain INEVH116141; format: toxicity, cell-based; conditions: read-out: Selectivity Index
Zika virus [5] = assay: Anti-viral activity against ZIKV Argentine strain INEVH116141 infected in african green monkey Vero cells at 0.1 MOI assessed as reduction in virus yield measured after 48 hrs by virus reduction assay; format: functional, organism-based
[6] = Solubility of the compound in simulated intestinal fluid (SIF,pH 6.8) incubated for 24 hrs by shake-flask method; format: ADME
[7] = Solubility of the compound in simulated gastric fluid (SGF,pH 1.2) incubated for 24 hrs by shake-flask method; format: ADME
[8] = Solubility of the compound in phosphate-buffered saline solution (PBS,pH 7.4) incubated for 24 hrs by shake-flask method; format: physicochemical
dengue virus type 2 [9] = assay: Inhibition of DENV-2 Thailand/16681/1984 strain infection in African green monkey Vero cells assessed as internalization (INT) treated after 1 hr post infection measured after 24 to 48 hrs; format: functional; conditions: time 24-48 hrs
[10] = Plasma stability in human plasma measured at 4 hrs; format: ADME, cell-free
Zika virus [11] = assay: Anti-viral activity against ZIKV Argentine strain INEVH116141 infected in african green monkey Vero cells at 0.1 MOI assessed as reduction in […] at 10 uM measured after 48 hrs by epifluorescence microscopy; format: functional, organism-based
dengue virus type 2 [12] = assay: Anti-viral activity against DENV-2 Thailand/16681/1984 strain infected in african green monkey Vero cells assessed as reduction in genome level at 10 uM measured after 48 hrs by QRT-PCR analysis; format: functional, organism-based
dengue virus type 2 [13] = assay: Inhibition of DENV-2 Thailand/16681/1984 strain infection in African green monkey Vero cells assessed as post-internalization (Post-INT) treated after 2 hr post infection measured after 48 hrs; format: functional
dengue virus type 2 [14] = assay: Anti-viral activity against DENV-2 Thailand/16681/1984 strain infected in African green monkey Vero cells at 0.1 MOI assessed as reduction in viral titer at 10 uM pre-treated for 2 hrs before cellular infection followed by infection 1 hr incubated with compound free culture medium for 48 hrs; format: functional, organism-based
Zika virus [15] = assay: Inhibition of ZIKV Argentine strain INEVH116141 infection in African green monkey Vero cells assessed as internalization (INT) treated after 1 hr post infection measured after 24 hrs; format: functional
Zika virus [16] = assay: Inhibition of ZIKV Argentine strain INEVH116141 infection in African green monkey Vero cells assessed as internalization (INT) treated after 1 hr post infection measured after 48 hrs; format: functional
[17] = Plasma stability in human plasma measured after 24 hrs relative to control; format: ADME, cell-free; conditions: read-out: Activity
dengue virus type 2 [18] = assay: Anti-viral activity against DENV-2 Thailand/16681/1984 strain infected in african green monkey Vero cells at 0.1 MOI assessed as reduction in fluorescence at 10 uM measured after 48 hrs by epifluorescence microscopy; format: functional, organism-based
Zika virus [19] = assay: Inhibition of ZIKV Argentine strain INEVH116141 infection in African green monkey Vero cells assessed as post-internalization (Post-INT) treated after 2 hr post infection measured after 24 hrs; format: functional
dengue virus type 2 [20] = assay: Inhibition of DENV-2 Thailand/16681/1984 strain infection in African green monkey Vero cells assessed as post-internalization (Post-INT) treated after 2 hr post infection measured after 24 hrs; format: functional
[21] = Metabolic stability in mouse liver microsomes assessed as intrinsic clearance at 3 uM in presence of NADPH by HPLC-MS analysis; format: ADME, Microsome
Zika virus [22] = assay: Anti-viral activity against ZIKV Argentine strain INEVH116141 infected in african green monkey Vero cells assessed as reduction in genome level at 10 uM measured after 48 hrs by QRT-PCR analysis; format: functional, organism-based
dengue virus type 2 [23] = assay: Anti-viral activity against DENV-2 Thailand/16681/1984 strain infected in african green monkey Vero cells at 0.1 MOI assessed as reduction in fluorescence at 10 uM measured for first 8 hrs by plaque assay; format: functional, organism-based
Zika virus [24] = assay: Anti-viral activity against ZIKV Argentine strain INEVH116141 infected in african green monkey Vero cells at 0.1 MOI assessed as reduction in […] at 10 uM measured for first 8 hrs by plaque assay; format: functional, organism-based
Zika virus [25] = assay: Anti-viral activity against ZIKV Argentine strain INEVH116141 infected in African green monkey Vero cells at 0.1 MOI assessed as reduction in viral titer at 10 uM pre-treated for 4 hrs before cellular infection followed by infection 1 hr incubated with compound free culture medium for 48 hrs; format: functional, organism-based
Zika virus [26] = assay: Inhibition of ZIKV Argentine strain INEVH116141 infection in African green monkey Vero cells assessed as absorption treated with compound for 1 hr during infection at 4 degC; format: functional, organism-based
dengue virus type 2 [27] = assay: Virucidal effect in DENV-2 Thailand/16681/1984 strain assessed as inactivation of virus at 2.5 to 10 uM measured after 1.5 hrs incubation by viral inactivation assay; format: functional, organism-based; conditions: dose 2.5-10 µM
[28] = Permeability of the compound by PAMPA assay; format: ADME
Zika virus [29] = assay: Inhibition of ZIKV Argentine strain INEVH116141 infection in African green monkey Vero cells assessed as post-internalization (Post-INT) treated after 2 hr post infection measured after 48 hrs; format: functional
[30] = Metabolic stability in mouse liver microsomes assessed as half life at 3 uM in presence of NADPH by HPLC-MS analysis; format: ADME, Microsome
[31] = Plasma stability in mouse plasma measured at 4 hrs; format: ADME, cell-free
dengue virus type 2 [32] = assay: Inhibition of DENV-2 Thailand/16681/1984 strain infection in African green monkey Vero cells assessed as absorption treated with compound for 1 hr during infection at 4 degC; format: functional, organism-based
Zika virus [33] = assay: Anti-viral activity against ZIKV Argentine strain INEVH116141 infected in African green monkey Vero cells at 0.1 MOI assessed as reduction in viral titer at 10 uM pre-treated for 2 hrs before cellular infection followed by infection 1 hr incubated with compound free culture medium for 48 hrs; format: functional, organism-based
Zika virus [34] = assay: Virucidal effect in ZIKV Argentine strain INEVH116141 strain assessed as inactivation of virus at 2.5 to 10 uM measured after 1.5 hrs incubation by viral inactivation assay; format: functional, organism-based; conditions: dose 2.5-10 µM
Zika virus [35] = assay: Anti-viral activity against ZIKV Argentine strain INEVH116141 infected in african green monkey Vero cells at 0.1 MOI assessed as reduction in […] at 10 uM measured for 10 to 12 hrs by plaque assay; format: functional, organism-based; conditions: time 10-12 hrs
[36] = Metabolic stability in mouse liver microsomes assessed as degradation at 3 uM in presence of NADPH measured upto 45 mins by HPLC-MS analysis; format: ADME, Microsome; conditions: read-out: CLH
dengue virus type 2 [37] = assay: Anti-viral activity against DENV-2 Thailand/16681/1984 strain infected in African green monkey Vero cells at 0.1 MOI assessed as reduction in viral titer at 10 uM pre-treated for 4 hrs before cellular infection followed by infection 1 hr incubated with compound free culture medium for 48 hrs; format: functional, organism-based
dengue virus type 2 [38] = assay: Anti-viral activity against DENV-2 Thailand/16681/1984 strain infected in african green monkey Vero cells at 0.1 MOI assessed as reduction in fluorescence at 10 uM measured for 10 to 12 hrs by plaque assay; format: functional, organism-based; conditions: time 10-12 hrs

CC1(C)CC(Nc2nc(Nc3ccc(-c4ccccc4)cc3)cc(C(F)(F)F)n2)CC(C)(C)N1
CC50 at 72 h [1]: 2.06 µM

Nc1ccc(CNc2cc(C(F)(F)F)nc(NCCN3CCCCC3)n2)cc1
CC50 at 72 h [1]: 8.92 µM

CC1(C)CC(Nc2nccc(Nc3ccc(Cl)cc3)n2)CC(C)(C)N1
CC50 at 72 h [1]: 5.19 µM | selectivity ratio [2]: 1.64 | pEC50 (dengue virus type 2 [3]): 5.50 | selectivity ratio [4]: 2.09 | pEC50 (Zika virus [5]): 5.61

O=C(Nc1cc(C(F)(F)F)nc(NCCN2CCCCC2)n1)c1ccc(Cl)cc1
CC50 at 72 h [1]: 20.8 µM | selectivity ratio [2]: < 1.05 | pEC50 (dengue virus type 2 [3]): < 4.70 | selectivity ratio [4]: < 1.05 | pEC50 (Zika virus [5]): < 4.70

N#Cc1cc(Nc2ccc(-c3ccccc3)cc2)nc(NCCN2CCCCC2)n1
CC50 at 72 h [1]: 25.4 µM | selectivity ratio [2]: 3.15 | pEC50 (dengue virus type 2 [3]): 5.09 | selectivity ratio [4]: 5.89 | pEC50 (Zika virus [5]): 5.37

c1ccc(-c2ccc(Nc3ccnc(NCCN4CCCCC4)n3)cc2)cc1
solubility thermodynamic at 24 h [6]: 324 µg/mL (≈ 867 µM) | solubility thermodynamic at 24 h [7]: 108 µg/mL (≈ 289 µM) | solubility thermodynamic at 24 h [8]: 32 µg/mL (≈ 85.7 µM)

c1ccc(-c2ccc(Nc3nc(NCCN4CCCCC4)nc4ccsc34)cc2)cc1
CC50 at 72 h [1]: 7.5 µM | selectivity ratio [2]: 0.92 | pEC50 (dengue virus type 2 [3]): 5.09 | selectivity ratio [4]: 1.83 | pEC50 (Zika virus [5]): 5.39

FC(F)(F)c1cc(NCc2ccc(Cl)cc2)nc(NCCN2CCCCC2)n1
inhibition (INH) (dengue virus type 2 [9]): <50% | solubility thermodynamic at 24 h [6]: 1690 µg/mL (≈ 4080 µM) | CC50 at 72 h [1]: 23.8 µM | Stability [10]: Stable | Activity (Zika virus [11]): Active | Activity (dengue virus type 2 [12]): Active | inhibition (INH) (dengue virus type 2 [13]): 85.52% | Activity (dengue virus type 2 [14]): Active | inhibition (INH) (Zika virus [15]): 26.36% | solubility thermodynamic at 24 h [7]: 76 µg/mL (≈ 184 µM) | selectivity ratio [2]: 20.5 | inhibition (INH) (Zika virus [16]): 29.22% | remaining at 24 h [17]: 20% | Activity (dengue virus type 2 [18]): Active | inhibition (INH) (Zika virus [19]): 44.86% | inhibition (INH) (dengue virus type 2 [20]): 73.2% | CLH [21]: 179 µL/min | Activity (Zika virus [22]): Active | Activity (dengue virus type 2 [23]): Active | Activity (Zika virus [24]): Active | Activity (Zika virus [25]): Active | inhibition (Zika virus [26]): inactive | Activity (dengue virus type 2 [27]): inactive | permeability [28]: Permeable | inhibition (INH) (Zika virus [29]): 43.7% | pEC50 (dengue virus type 2 [3]): 5.94 | half-life at 3 µM [30]: 8.6 min | Stability [31]: Stable | selectivity ratio [4]: 9.13 | solubility thermodynamic at 24 h [8]: 507 µg/mL (≈ 1230 µM) | inhibition (dengue virus type 2 [32]): inactive | Activity (Zika virus [33]): inactive | Activity (Zika virus [34]): inactive | Activity (Zika virus [35]): Active | microsomal CLint at 3 µM [36]: 179 µL/min/mg | Activity (dengue virus type 2 [37]): Active | pEC50 (Zika virus [5]): 5.58 | Activity (dengue virus type 2 [38]): Active

Fc1ccc(CNc2cc(C(F)(F)F)nc(NCCN3CCCCC3)n2)cc1
CC50 at 72 h [1]: 47.6 µM | selectivity ratio [2]: 2.96 | pEC50 (dengue virus type 2 [3]): 4.79 | selectivity ratio [4]: 2.84 | pEC50 (Zika virus [5]): 4.78

Cc1ccc(CNc2cc(C(F)(F)F)nc(NCCN3CCCCC3)n2)cc1
CC50 at 72 h [1]: 49 µM | selectivity ratio [2]: < 2.5 | pEC50 (dengue virus type 2 [3]): < 4.70 | selectivity ratio [4]: 3.63 | pEC50 (Zika virus [5]): 4.87

Fc1cc(Cl)ccc1CNc1cc(C(F)(F)F)nc(NCCN2CCCCC2)n1
CC50 at 72 h [1]: 9.07 µM

CN(Cc1ccc(Cl)cc1)c1cc(C(F)(F)F)nc(NCCN2CCCCC2)n1
CC50 at 72 h [1]: 8.18 µM
